# Source: ChEMBL document CHEMBL4184210, “Optimization of novel monobactams with activity against carbapenem-resistant Enterobacteriaceae - Identification of LYS228” (Bioorg Med Chem Lett, 2018)
# Tests used:
# Escherichia coli [1] = assay: Antimicrobial activity against Escherichia coli expressing beta-lactamase KPC-2 by CLSI broth microdilution method; assay type: functional
# [2] = Chemical stability in pH 7.4 potassium phosphate buffer assessed as half life for compound hydrolysis at 37 degC by UPLC and mass spectrometry; assay type: physicochemical
# Escherichia coli [3] = assay: microbe, parasite or virus in culture
# Description: Antimicrobial activity against wild type Escherichia coli by CLSI broth microdilution method
# Escherichia coli [4] = assay: microbe, parasite or virus in culture; remark: listed apart in the source
# Description: Antimicrobial activity against Escherichia coli expressing beta-lactamase CTXM-15 by CLSI broth microdilution method
# Escherichia coli [5] = assay: microbe, parasite or virus in culture; remark: listed apart in the source
# Description: Antimicrobial activity against Escherichia coli expressing beta-lactamase SHV-12 by CLSI broth microdilution method
# Escherichia coli [6] = assay: microbe, parasite or virus in culture; remark: listed apart in the source
# Description: Antimicrobial activity against Escherichia coli expressing beta-lactamase TEM-10 by CLSI broth microdilution method
# Escherichia coli [7] = assay: microbe, parasite or virus in culture; remark: listed apart in the source
# Description: Antimicrobial activity against Escherichia coli expressing beta-lactamase AmpC by CLSI broth microdilution method
# Escherichia coli [8] = assay: microbe, parasite or virus in culture; remark: listed apart in the source
# Description: Antimicrobial activity against Escherichia coli expressing beta-lactamase CMY-2 by CLSI broth microdilution method
Compound,MIC (Escherichia coli [1]) [µg/mL],half-life [2] [h],MIC (Escherichia coli [3]) [µg/mL],MIC (Escherichia coli [4]) [µg/mL],MIC (Escherichia coli [5]) [µg/mL],MIC (Escherichia coli [6]) [µg/mL],MIC (Escherichia coli [7]) [µg/mL],MIC (Escherichia coli [8]) [µg/mL]
CC(C)(O/N=C(\C(=O)N[C@@H]1C(=O)N(S(=O)(=O)O)[C@@H]1Cn1cc(CO)nn1)c1csc(N)n1)C(=O)O (stereo in doubt),4,> 37,0.5,1,16,8,4,4
CC(C)(O/N=C(\C(=O)N[C@@H]1C(=O)N(S(=O)(=O)O)[C@@H]1CN1C[C@@H](CO)OC1=O)c1csc(N)n1)C(=O)O (stereo in doubt),32,> 37,16,16,32,64,32,16
C[C@@H](O)[C@H]1C(=O)N2C(C(=O)O)=C(SCCN=CN)C[C@H]12 [IMIPENEM ANHYDROUS],–,46,–,–,–,–,–,–
C[C@@H]1CN(C[C@@H]2[C@H](NC(=O)/C(=N\OC(C)(C)C(=O)O)c3csc(N)n3)C(=O)N2S(=O)(=O)O)C(=O)O1 (stereo in doubt),1,> 37,1,1,1,8,2,4
CC(C)(O/N=C(\C(=O)N[C@@H]1C(=O)N(S(=O)(=O)O)[C@@H]1CN1C[C@H](CN)OC1=O)c1csc(N)n1)C(=O)O (stereo in doubt),1,> 37,1,1,1,8,1,2
Nc1nc(/C(=N/OCC(=O)O)C(=O)N[C@@H]2C(=O)N(S(=O)(=O)O)[C@@H]2Cn2cncn2)cs1 (stereo in doubt),0.5,–,0.125,0.25,16,1,16,8
CC(C)(O/N=C(\C(=O)N[C@@H]1C(=O)N(S(=O)(=O)O)[C@@H]1Cn1cc(C(=O)O)nn1)c1csc(N)n1)C(=O)O (stereo in doubt),16,> 37,32,16,16,32,32,64
Nc1nc(/C(=N/OC2(C(=O)O)CC2)C(=O)N[C@@H]2C(=O)N(S(=O)(=O)O)[C@@H]2Cn2cncn2)cs1 (stereo in doubt),0.25,–,0.125,0.125,1,0.5,1,1
CC(C)(O/N=C(\C(=O)N[C@@H]1C(=O)N(S(=O)(=O)O)[C@@H]1CN1C[C@@H](CNC(=N)N)OC1=O)c1csc(N)n1)C(=O)O (stereo in doubt),1,> 37,0.25,0.125,0.25,2,0.25,0.25
CC(C)(O/N=C(\C(=O)N[C@@H]1C(=O)N(S(=O)(=O)O)[C@@H]1Cn1ncnc1CN)c1csc(N)n1)C(=O)O (stereo in doubt),4,> 37,2,2,4,4,8,8
CC(C)(O/N=C(\C(=O)N[C@@H]1C(=O)N(S(=O)(=O)O)[C@@H]1Cn1ncnc1CNC(=N)N)c1csc(N)n1)C(=O)O (stereo in doubt),32,> 37,16,16,16,16,32,32
C[C@H](O/N=C(\C(=O)N[C@@H]1C(=O)N(S(=O)(=O)O)[C@@H]1Cn1cncn1)c1csc(N)n1)C(=O)O (stereo in doubt),1,–,0.125,0.125,4,4,2,8
CC(C)(O/N=C(\C(=O)N[C@@H]1C(=O)N(S(=O)(=O)O)[C@@H]1Cn1cc(CN)nn1)c1csc(N)n1)C(=O)O (stereo in doubt),2,> 37,1,1,4,2,1,1
C[C@@H](O/N=C(\C(=O)N[C@@H]1C(=O)N(S(=O)(=O)O)[C@@H]1Cn1cncn1)c1csc(N)n1)C(=O)O (stereo in doubt),1,–,1,0.5,2,1,4,16
Cc1ncnn1C[C@@H]1[C@H](NC(=O)/C(=N\OC(C)(C)C(=O)O)c2csc(N)n2)C(=O)N1S(=O)(=O)O (stereo in doubt),2,> 37,4,4,4,8,8,8

# The remaining lines, values ahead:
MIC (Escherichia coli [1]) [µg/mL],half-life [2] [h],MIC (Escherichia coli [3]) [µg/mL],MIC (Escherichia coli [4]) [µg/mL],MIC (Escherichia coli [5]) [µg/mL],MIC (Escherichia coli [6]) [µg/mL],MIC (Escherichia coli [7]) [µg/mL],MIC (Escherichia coli [8]) [µg/mL],Compound
1,–,1,0.5,1,4,2,4,Nc1nc(/C(=N/OC2(C(=O)O)CCC2)C(=O)N[C@@H]2C(=O)N(S(=O)(=O)O)[C@@H]2Cn2cncn2)cs1 (stereo in doubt)
4,> 37,2,1,2,> 64,2,4,CC(C)(O/N=C(\C(=O)N[C@@H]1C(=O)N(S(=O)(=O)O)[C@@H]1CN1C[C@H](CO)OC1=O)c1csc(N)n1)C(=O)O (stereo in doubt)
1,> 37,0.5,0.5,0.5,2,1,1,CC(C)(O/N=C(\C(=O)N[C@@H]1C(=O)N(S(=O)(=O)O)[C@@H]1CN1C[C@@H](CN)OC1=O)c1csc(N)n1)C(=O)O (stereo in doubt)
16,> 37,8,8,16,> 64,16,32,CC(C)(O/N=C(\C(=O)N[C@@H]1C(=O)N(S(=O)(=O)O)[C@@H]1CN1C[C@H](CNC(=N)N)OC1=O)c1csc(N)n1)C(=O)O (stereo in doubt)
2,> 37,1,1,4,2,2,4,CC(C)(O/N=C(\C(=O)N[C@@H]1C(=O)N(S(=O)(=O)O)[C@@H]1Cn1cc(CCN)nn1)c1csc(N)n1)C(=O)O (stereo in doubt)
0.5,> 37,0.25,0.25,1,1,1,0.5,CC(C)(O/N=C(\C(=O)N[C@@H]1C(=O)N(S(=O)(=O)O)[C@@H]1Cn1cc(CNC(=N)N)nn1)c1csc(N)n1)C(=O)O (stereo in doubt)
2,> 37,1,2,8,8,2,8,CC(C)(O/N=C(\C(=O)N[C@@H]1C(=O)N(S(=O)(=O)O)[C@@H]1Cn1cc(NC(=O)C[N+](C)(C)C)nn1)c1csc(N)n1)C(=O)O
